The record followed here is patent US10676791B2, “Methods for predicting response to DNA repair pathway inhibitors in diffuse large B-cell lymphoma” (INSERM (INSTITUT NATIONAL DE LA SANTÉ ET DE LA RECHERCHE …, priority 2014, dated 2020).

Each structure is given as a SMILES string. Like-named read-outs stand apart in the source and are kept apart here.

Common to all, as to assay type: cell-based
One experiment relates to HT. As to the kind of experiment: DLBCL cell line growth inhibition (Cell Titer Glo Luminescent Assay), HT. The settings on record: read-out: PJ34 IC50. As to the method: (§1) 6 DLBCL cell lines were treated by increasing doses of PARP inhibitor (PJ34 hydrochloride). DLBCL cell lines growth was quantified with a Cell Titer Glo Luminescent Assay (Promega, Madison, Wis., USA) and the 50% inhibitory concentration (IC50) was determined using GraphPad Prism software (http://www.graphpad.com/scientific-software/prism/) (FIG. 7A).

The test system of a further experiment is OCILY3. Briefly: DLBCL cell line growth inhibition (Cell Titer Glo Luminescent Assay), OCILY3. The conditions noted are these: read-out: PJ34 IC50. Here is the method: as §1
The subject of a further experiment is OCILY1. As to the kind of experiment: DLBCL cell line growth inhibition (Cell Titer Glo Luminescent Assay), OCILY1. The conditions noted are these: read-out: PJ34 IC50. Here is the method:
as §1
For orientation: In ATP-based viability assays light output follows the ATP content of the culture.

Another experiment has as its system U2932. As to the kind of experiment: DLBCL cell line growth inhibition (Cell Titer Glo Luminescent Assay), U2932. The settings on record: read-out: PJ34 IC50. As to the method:
as §1

Another experiment has as its system DOHH2. Briefly: DLBCL cell line growth inhibition (Cell Titer Glo Luminescent Assay), DOHH2. The conditions noted are these: DOHH cell line (high HRR score). Here is the method:
as §1

The test system of the next experiment is OCILY7. As to the kind of experiment: DLBCL cell line growth inhibition (Cell Titer Glo Luminescent Assay), OCILY7. The conditions noted are these: OCILY7 cell line (high HRR score). As to the method: as §1
In the next experiment the test system is DLBCL cell lines. As to the kind of experiment: DLBCL cell lines growth inhibition (Cell Titer Glo Luminescent Assay), panel of 6 cell lines. Here is the method:
as §1

As to `CN(C)CC(=O)Nc1ccc2[nH]c(=O)c3ccccc3c2c1.Cl` [PJ34, PJ34 hydrochloride], the concentration for half-maximal inhibition (IC50) (commonly the point on the concentration scale where inhibition reaches its midpoint) in the experiment on HT came out at 8.08 µM; in the experiment with OCILY3 it was 7.26 µM; in the experiment on OCILY1 it was 7.57 µM; in the experiment with U2932 it was 7.2 µM; with DOHH2, 15.2 µM; in the experiment on OCILY7 it was 14 µM. Besides, the IC50 was found to be 7.41 µM with DLBCL cell lines (DLBCL cell lines with a lower HRR score, read-out: median IC50) and 7.82 µM with DLBCL cell lines (median over 6 DLBCL cell lines). For the same compound, the “sensitivity to PARPi” value with DLBCL cell lines (DLBCL cell lines with a high BER score, excluding the cell lines with a high HRR score) is on record as “sensitive”. Moreover, in the experiment with DLBCL cell lines (two DLBCL cell lines with high HRR score compared to cell lines with a lower HRR score), the “fold higher resistance to PARPi” value is recorded as 2 fold.
